“And” between values parts separate entries of the source, which are not always exact repeats. Equal entries are not always repeated. Toxic doses and inconclusive results are not listed. Starred links: 1 amine or outer side, 2 acyl side, 3 side chain; linkers in the order of their positions; H or OH if unused. Positions of bridges follow the written chain, without caps; N, C: chain ends. Non-standard residues stand in square brackets, D forms with d. Residues, ends and D or L forms follow the SMILES beside them. Chains are numbered I, II in the order given. ξ: configuration not given here. Actinocin(9to1) = Cc1c2oc3c(C)ccc(C(=O)[*:1])c3nc-2c(C(=O)[*:2])c(N)c1=O; ξPro(4ξ-Me) = CC1CNC(C(=O)O)C1; NMeV = CN[CH](C(=O)O)C(C)C; Sar = CNCC(=O)O
Test system: BDF1 mice, P388 leukemia ip, median survival T/C
Test: NCI In Vivo Anticancer Drug Screen. Data for tumor model P388 Leukemia (intraperitoneal) in B6D2F1 (BDF1) mice
Settings: endpoint: median survival time, higher = longer survival
In short: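 Each value expresses how treatment altered survival: treated-mouse outcome over vehicle-mouse outcome, both groups bearing the transplanted tumour.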

[1] = dose: 3.12 mg/kg/injection, schedule: Q01DX009 (ip), vehicle: saline
[2] = dose: 6.25 mg/kg/injection, schedule: Q01DX009 (ip), vehicle: saline
[3] = dose: 12.5 mg/kg/injection, schedule: Q01DX009 (ip), vehicle: saline
[4] = dose: 25.0 mg/kg/injection, schedule: Q01DX009 (ip), vehicle: saline
[5] = dose: 50.0 mg/kg/injection, schedule: Q01DX009 (ip), vehicle: saline
[6] = dose: 100.0 mg/kg/injection, schedule: Q01DX009 (ip), vehicle: saline
[7] = dose: 100.0 mg/kg/injection, schedule: Q04DX003 (ip), vehicle: saline with Tween-80
[8] = dose: 200.0 mg/kg/injection, schedule: Q04DX003 (ip), vehicle: saline with Tween-80
[9] = dose: 50.0 mg/kg/injection, schedule: Q01DX009 (ip), vehicle: saline with Tween-80
[10] = dose: 100.0 mg/kg/injection, schedule: Q01DX009 (ip), vehicle: saline with Tween-80
[11] = dose: 200.0 mg/kg/injection, schedule: Q01DX009 (ip), vehicle: saline with Tween-80
[12] = dose: 100.0 mg/kg/injection, schedule: Q04DX003 (ip), vehicle: saline
[13] = dose: 200.0 mg/kg/injection, schedule: Q04DX003 (ip), vehicle: saline
[14] = dose: 400.0 mg/kg/injection, schedule: Q04DX003 (ip), vehicle: saline
[15] = dose: 400.0 mg/kg/injection, schedule: Q01DX009 (ip), vehicle: saline

SMILES: CCOC(=O)NC1=C(N2CC2)C(=O)C(NC(=O)OCC)=C(N2CC2)C1=O
- T/C (dose: 0.78 mg/kg/injection, schedule: Q01DX009 (ip), vehicle: saline): 199 % of control and 211 % of control and 212 % of control
- T/C (dose: 1.56 mg/kg/injection, schedule: Q01DX009 (ip), vehicle: saline): 235 % of control and 238 % of control and 212 % of control
- T/C [1]: 100 % of control

SMILES: N=C(N)SCCN1C(=O)NC(c2ccccc2)(c2ccccc2)C1=O
- T/C [2]: 96 % of control and 99 % of control
- T/C [3]: 90 % of control and 104 % of control
- T/C [4]: 93 % of control and 105 % of control
- T/C [5]: 102 % of control and 105 % of control
- T/C [6]: 106 % of control and 120 % of control

SMILES: O=C(Nc1ccc(Cl)c(Cl)c1)Nc1c(Oc2ccc(Cl)c(Cl)c2)ccc(Cl)c1S(=O)(=O)O
- T/C [2]: 118 % of control
- T/C [3]: 109 % of control
- T/C [4]: 104 % of control
- T/C (dose: 35.0 mg/kg/injection, schedule: Q01DX009 (ip), vehicle: saline): 118 % of control
- T/C [5]: 105 % of control
- T/C (dose: 55.0 mg/kg/injection, schedule: Q01DX009 (ip), vehicle: saline): 113 % of control
- T/C (dose: 80.0 mg/kg/injection, schedule: Q01DX009 (ip), vehicle: saline): 111 % of control

SMILES: CCN(CC)c1ccc(NC(=O)Nc2ccccc2C)cc1
- T/C [7]: 95 % of control
- T/C [8]: 95 % of control
- T/C (dose: 400.0 mg/kg/injection, schedule: Q04DX003 (ip), vehicle: saline with Tween-80): 90 % of control

SMILES: COc1ccc(C(=S)N2CCN(c3ccccc3)CC2)cc1
- T/C [9]: 95 % of control
- T/C [10]: 100 % of control
- T/C [11]: 95 % of control

SMILES: Nc1ccn(C2OC(COC3CCCCO3)C(OC3CCCCO3)C2OC2CCCCO2)c(=O)n1 (stereo unspecified)
- T/C (dose: 50.0 mg/kg/injection, schedule: Q01DX007 (ip), vehicle: saline): 108 % of control
- T/C (dose: 100.0 mg/kg/injection, schedule: Q01DX007 (ip), vehicle: saline): 94 % of control
- T/C [12]: 90 % of control
- T/C (dose: 200.0 mg/kg/injection, schedule: Q01DX007 (ip), vehicle: saline): 94 % of control
- T/C [13]: 86 % of control
- T/C (dose: 400.0 mg/kg/injection, schedule: Q01DX007 (ip), vehicle: saline): 100 % of control
- T/C [14]: 104 % of control

SMILES: OCCN1CCN(CCCN2c3ccccc3CCc3ccccc32)CC1
- T/C (dose: 25.0 mg/kg/injection, schedule: Q04DX003 (ip), vehicle: saline): 103 % of control and 117 % of control
- T/C (dose: 50.0 mg/kg/injection, schedule: Q04DX003 (ip), vehicle: saline): 100 % of control and 107 % of control
- T/C [12]: 115 % of control and 116 % of control

SMILES: Cc1c2oc3c(C)ccc(C(=O)NC4C(=O)NC(C(C)C)C(=O)N5CC(C)CC5C(=O)N(C)CC(=O)N(C)C(C(C)C)C(=O)OC4C)c3nc-2c(C(=O)NC2C(=O)NC(C(C)C)C(=O)N3CC(C)CC3C(=O)N(C)CC(=O)N(C)C(C(C)C)C(=O)OC2C)c(N)c1=O (stereo unspecified) (I: TV[ξPro(4ξ-Me)][Sar][NMeV] / II: TV[ξPro(4ξ-Me)][Sar][NMeV]; ester I:1-I:C, II:1-II:C; linker I:N-II:N via Actinocin(9to1); configuration not given here)
- T/C (dose: 1.3 mg/kg/injection, schedule: Q01DX009 (ip), vehicle: saline + alcohol): 204 % of control
- T/C (dose: 2.16 mg/kg/injection, schedule: Q01DX009 (ip), vehicle: saline + alcohol): 228 % of control
- T/C (dose: 3.24 mg/kg/injection, schedule: Q04DX003 (ip), vehicle: saline + alcohol): 190 % of control and 161 % of control and 193 % of control
- T/C (dose: 3.6 mg/kg/injection, schedule: Q01DX009 (ip), vehicle: saline + alcohol): 314 % of control
- T/C (dose: 5.4 mg/kg/injection, schedule: Q04DX003 (ip), vehicle: saline + alcohol): 160 % of control and 219 % of control
- T/C (dose: 9.0 mg/kg/injection, schedule: Q04DX003 (ip), vehicle: saline + alcohol): 160 % of control and 209 % of control and 99 % of control
- T/C (dose: 15.0 mg/kg/injection, schedule: Q04DX003 (ip), vehicle: saline + alcohol): 104 % of control and 207 % of control
- T/C (dose: 288.0 micrograms/kg/injection, schedule: Q01DX009 (ip), vehicle: saline + alcohol): 169 % of control
- T/C (dose: 480.0 micrograms/kg/injection, schedule: Q01DX009 (ip), vehicle: saline + alcohol): 176 % of control
- T/C (dose: 800.0 micrograms/kg/injection, schedule: Q01DX009 (ip), vehicle: saline + alcohol): 194 % of control
- T/C (dose: 864.0 micrograms/kg/injection, schedule: Q04DX003 (ip), vehicle: saline + alcohol): 101 % of control
- T/C (dose: 2400.0 micrograms/kg/injection, schedule: Q04DX003 (ip), vehicle: saline + alcohol): 167 % of control
- T/C (dose: 4000.0 micrograms/kg/injection, schedule: Q04DX003 (ip), vehicle: saline + alcohol): 151 % of control and 194 % of control

SMILES: c1ccc(CN2C3Oc4ccccc4C2Oc2ccccc23)cc1
- T/C [9]: 94 % of control
- T/C [11]: 87 % of control

SMILES: CCCCCCCCCC[N+]1([O-])CCCCC1
- T/C [3]: 98 % of control
- T/C [4]: 91 % of control
- T/C [5]: 94 % of control

SMILES: CC(CS(=O)(=O)O)NC(CO)(CO)CO (stereo unspecified)
- T/C [6]: 87 % of control
- T/C [12]: 100 % of control
- T/C [13]: 109 % of control
- T/C [15]: 100 % of control
- T/C [14]: 90 % of control

SMILES: CCCCCCC(NC(C)=O)C(C)=O (stereo unspecified)
- T/C [9]: 104 % of control
- T/C [10]: 101 % of control
- T/C [11]: 101 % of control

SMILES: O=S1(=O)C=CCC2C3CCC(C3)C21 (stereo unspecified)
- T/C (dose: 100.0 mg/kg/injection, schedule: Q01DX001 (ip), vehicle: saline with Tween-80): 100 % of control
- T/C (dose: 200.0 mg/kg/injection, schedule: Q01DX001 (ip), vehicle: saline with Tween-80): 106 % of control

SMILES: CCC(C)(OC(C)=O)C(=O)O[C@H]1C(=O)O[C@@H]2C[C@H]3C(C)=CC(=O)[C@@H](O)[C@]3(C)[C@H]3[C@@]4(O)OC[C@]32[C@@H]1[C@@H](C)[C@H]4O (stereo partly specified)
- T/C (dose: 0.25 mg/kg/injection, schedule: Q01DX009 (ip), vehicle: saline): 119 % of control
- T/C (dose: 1.25 mg/kg/injection, schedule: Q01DX009 (ip), vehicle: saline): 157 % of control
- T/C (dose: 2.0 mg/kg/injection, schedule: Q01DX009 (ip), vehicle: saline): 121 % of control
- T/C (dose: 5.0 mg/kg/injection, schedule: Q01DX009 (ip), vehicle: saline): 123 % of control

SMILES: CCC1CC[N-]CC1.CCC1CC[N-]CC1.[Cl][Pt+2]([Cl])([Cl])[Cl]
- T/C [1]: 107 % of control
- T/C [2]: 110 % of control
- T/C [3]: 110 % of control

SMILES: CCCC(=O)C(CC)C(O)(C(F)(F)F)C(F)(F)F (stereo unspecified)
- T/C (dose: 50.0 mg/kg/injection, schedule: Q04DX003 (ip), vehicle: saline with Tween-80): 100 % of control
- T/C [7]: 104 % of control
- T/C [8]: 118 % of control

SMILES: Cc1cccc(CSc2nc(N)nc3c2ncn3C2CC(O)C(CO)O2)n1 (stereo unspecified)
- T/C [12]: 92 % of control
- T/C [13]: 98 % of control
- T/C [14]: 104 % of control

SMILES: NC(=O)c1nc2c([nH]c1=O)CCCC2
- T/C [5]: 101 % of control
- T/C [6]: 100 % of control
- T/C [12]: 109 % of control
- T/C (dose: 200.0 mg/kg/injection, schedule: Q01DX009 (ip), vehicle: saline): 110 % of control
- T/C [13]: 104 % of control
- T/C [15]: 93 % of control
- T/C [14]: 95 % of control

SMILES: COc1cccc(/C=C/[N+](=O)[O-])c1
- T/C (dose: 15.0 mg/kg/injection, schedule: Q01DX009 (ip), vehicle: saline with Tween-80): 108 % of control
- T/C (dose: 20.0 mg/kg/injection, schedule: Q01DX009 (ip), vehicle: Klucel (hydroxypropylcellulose) (HPC)): 107 % of control
- T/C (dose: 30.0 mg/kg/injection, schedule: Q01DX009 (ip), vehicle: Klucel (hydroxypropylcellulose) (HPC)): 115 % of control
- T/C (dose: 60.0 mg/kg/injection, schedule: Q01DX009 (ip), vehicle: saline with Tween-80): 100 % of control

SMILES: COC(OC)C(=O)/C=C/C(C)COC1CCCCO1 (stereo unspecified)
- T/C (dose: 50.0 mg/kg/injection, schedule: Q04DX003 (ip), vehicle: Klucel (hydroxypropylcellulose) (HPC)): 113 % of control
- T/C (dose: 100.0 mg/kg/injection, schedule: Q04DX003 (ip), vehicle: Klucel (hydroxypropylcellulose) (HPC)): 118 % of control
- T/C (dose: 200.0 mg/kg/injection, schedule: Q04DX003 (ip), vehicle: Klucel (hydroxypropylcellulose) (HPC)): 109 % of control

SMILES: NNC(=O)[C@H]1CC[C@H]1C(=O)NN
- T/C [4]: 95 % of control
- T/C [5]: 109 % of control

SMILES: C=C(C)C(=O)O[C@H]1CC2=CC(CC(C)=C[C@H]3OC(=O)C(=C)C13)OC2=O (stereo partly specified)
- T/C (dose: 12.5 mg/kg/injection, schedule: Q01DX001 (ip), vehicle: saline with Tween-80): 109 % of control
- T/C (dose: 25.0 mg/kg/injection, schedule: Q01DX001 (ip), vehicle: saline with Tween-80): 120 % of control
- T/C (dose: 50.0 mg/kg/injection, schedule: Q01DX001 (ip), vehicle: saline with Tween-80): 107 % of control and 111 % of control

SMILES: CCCCc1ccc(C(=O)O)nc1
- T/C [3]: 100 % of control
- T/C [4]: 102 % of control
- T/C [5]: 102 % of control

SMILES: COc1cc(Br)cc(C(=O)O)c1OC
- T/C (dose: 50.0 mg/kg/injection, schedule: Q01DX009 (ip), vehicle: distilled water + Tween-80): 96 % of control
- T/C (dose: 100.0 mg/kg/injection, schedule: Q01DX009 (ip), vehicle: distilled water + Tween-80): 88 % of control

Reference: PubChem BioAssay AID328 (DTP/NCI, 2004)
